Among the data in PubChem BioAssay (NCI) are TGI values, retold here.

Among the test systems are DU-145 prostate; HCC-2998 colon; HOP-92 NSCLC; HS 578T breast; HT29 colon; K-562 leukemia; MCF7 breast; MDA-MB-231 breast; OVCAR-3 ovarian; OVCAR-5 ovarian; OVCAR-8 ovarian; PC-3 prostate; SF-268 CNS; SF-295 CNS; SK-MEL-2 melanoma; SK-MEL-28 melanoma; SK-MEL-5 melanoma; SN12C renal; T-47D breast; UACC-257 melanoma.
Holding throughout (assay): NCI tumour cell line growth inhibition, 48 h

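Briefly, cells in 96-well plates were exposed to five compound concentrations for 48 h, and endpoints were estimated by linear interpolation. The concentration for full growth arrest is given as TGI.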

On to `Cc1nn(C(=O)c2ccncc2)c2c1C(c1ccccc1O)SC(N)=N2` (stereo not given), for which the TGI with DU-145 prostate, in the test with HCC-2998 colon, in the test on HOP-92 NSCLC, in the test with HS 578T breast, in the test with HT29 colon and in the test with K-562 leukemia was more than 10 µM each time. Also, the TGI in the test on MCF7 breast, in the test on MDA-MB-231 breast, with OVCAR-3 ovarian, with OVCAR-5 ovarian, in the test on OVCAR-8 ovarian and in the test on PC-3 prostate was more than 10 µM in each case. Also, the TGI with SF-268 CNS, in the test on SF-295 CNS, with SK-MEL-2 melanoma, with SK-MEL-28 melanoma, in the test on SK-MEL-5 melanoma and in the test on SN12C renal was more than 10 µM each time. Further, the TGI in the test with T-47D breast and in the test on UACC-257 melanoma was more than 10 µM each time.
In the case of `C/C(=C\[C@H]1C[C@@H]([C@@H]2CC[C@]34C[C@]23C=C[C@@H]2[C@@]3(C)CC=C5C[C@@H](c6ccccc6)OC[C@]5(C)[C@@H]3C[C@@H](O)[C@]24C)C(=O)O1)CO`, the TGI is more than 67.9 µM in the test on DU-145 prostate; more than 26.4 µM in the test on HCC-2998 colon; 28.1 µM in the test on HOP-92 NSCLC; more than 72.2 µM in the test on HS 578T breast; 7.85 µM in the test with HT29 colon; more than 100 µM in the test on K-562 leukemia. The TGI in the test on MCF7 breast is more than 100 µM; in the test with MDA-MB-231 breast it was 54.4 µM; in the test with OVCAR-3 ovarian, more than 100 µM; with OVCAR-5 ovarian, 34.2 µM; in the test on OVCAR-8 ovarian, more than 100 µM; in the test on PC-3 prostate, more than 55.6 µM. In addition, the TGI in the test on SF-268 CNS was more than 70.1 µM; in the test on SF-295 CNS, 15.7 µM; in the test on SK-MEL-2 melanoma, more than 100 µM; in the test on SK-MEL-28 melanoma it was more than 100 µM; in the test with SK-MEL-5 melanoma, 2.76 µM; in the test with SN12C renal it was 5.57 µM. For the same compound, the TGI in the test on T-47D breast was more than 100 µM; in the test on UACC-257 melanoma it was 30.7 µM.
Consider `COc1cc(CNC(=O)CCCCCCCCCCSSCCCCCCCCCCC(=O)NCc2ccc(O)c(OC)c2)ccc1O`, for which the TGI in the test on DU-145 prostate, with HCC-2998 colon, with HOP-92 NSCLC, in the test with HS 578T breast, in the test with HT29 colon and in the test on K-562 leukemia was more than 10 µM throughout. The TGI in the test with MCF7 breast, in the test with MDA-MB-231 breast, in the test on OVCAR-3 ovarian, with OVCAR-5 ovarian, in the test with OVCAR-8 ovarian and in the test on PC-3 prostate was more than 10 µM throughout. The TGI in the test on SF-268 CNS, in the test on SF-295 CNS, in the test with SK-MEL-2 melanoma, with SK-MEL-28 melanoma, in the test on SK-MEL-5 melanoma and in the test on SN12C renal was more than 10 µM throughout. Besides, the TGI in the test on T-47D breast and with UACC-257 melanoma was more than 10 µM throughout.
As to `CCNC(=O)Cc1nc2c(=O)[nH]cnc2n1C1OC(CO)C(O)C1O` (stereo not given), the TGI in the test with DU-145 prostate, in the test on HCC-2998 colon, with HOP-92 NSCLC, in the test with HS 578T breast, in the test on HT29 colon and with K-562 leukemia was more than 100 µM in each case. The TGI in the test on MCF7 breast, with MDA-MB-231 breast, with OVCAR-3 ovarian, in the test with OVCAR-5 ovarian, with OVCAR-8 ovarian and with PC-3 prostate was more than 100 µM throughout. The TGI in the test with SF-268 CNS, in the test with SF-295 CNS, with SK-MEL-2 melanoma, with SK-MEL-28 melanoma, with SK-MEL-5 melanoma and in the test with SN12C renal was more than 100 µM in each case. For the same compound, the TGI in the test with T-47D breast and with UACC-257 melanoma was more than 100 µM each time.
Regarding `Cc1c(C)c(C)c(CSC(=N)N)c(C)c1C`, the TGI in the test with DU-145 prostate amounted to 31.6 µM; in the test on HCC-2998 colon, 27.8 µM; with HOP-92 NSCLC it was 30.9 µM; in the test with HS 578T breast, 36.4 µM; with HT29 colon, 25.6 µM; with K-562 leukemia it was 30.2 µM. For the same compound, the TGI with MCF7 breast came out at 30.9 µM; with MDA-MB-231 breast, 27.1 µM; with OVCAR-3 ovarian it was 32.1 µM; in the test on OVCAR-5 ovarian it was 29.8 µM; in the test on OVCAR-8 ovarian it was 58.2 µM; in the test with PC-3 prostate, 24.6 µM. Moreover, the TGI in the test on SF-268 CNS was 36.2 µM; in the test with SF-295 CNS it was 21.7 µM; in the test on SK-MEL-2 melanoma, 27.8 µM; in the test on SK-MEL-28 melanoma, 28.8 µM; in the test with SK-MEL-5 melanoma, 26.6 µM; with SN12C renal it was 32.3 µM. Also, the TGI in the test on T-47D breast was 36.6 µM; in the test with UACC-257 melanoma, 27.3 µM.
`COc1cc2c(cc1OC)C(=O)/C(=C/c1ccccc1)C2`: the TGI in the test with DU-145 prostate was more than 100 µM; in the test on HCC-2998 colon, more than 100 µM; with HOP-92 NSCLC it was more than 100 µM; in the test with HS 578T breast, more than 100 µM; in the test on HT29 colon, more than 100 µM; in the test with K-562 leukemia it was more than 65.6 µM. Further, the TGI with MCF7 breast, in the test with MDA-MB-231 breast, with OVCAR-3 ovarian, with OVCAR-5 ovarian, in the test on OVCAR-8 ovarian and in the test on PC-3 prostate was more than 100 µM in each case. Further, the TGI with SF-268 CNS was more than 100 µM; with SF-295 CNS it was more than 100 µM; with SK-MEL-2 melanoma it was more than 100 µM; in the test on SK-MEL-28 melanoma, more than 100 µM; in the test with SK-MEL-5 melanoma it was more than 84.1 µM; in the test on SN12C renal, more than 100 µM. Further, the TGI in the test with T-47D breast and in the test on UACC-257 melanoma was more than 100 µM each time.
`CC(=O)OCC(OC(C)=O)C(OC(C)=O)C(OC(C)=O)C(/C=N\Nc1nc2ccccc2c(=O)[nH]1)OC(C)=O` (stereo not given): the TGI in the test on DU-145 prostate, in the test on HCC-2998 colon, in the test with HOP-92 NSCLC, in the test with HS 578T breast, with HT29 colon and with K-562 leukemia was more than 100 µM each time. In addition, the TGI in the test with MCF7 breast, in the test on MDA-MB-231 breast, in the test with OVCAR-3 ovarian, in the test on OVCAR-5 ovarian, in the test with OVCAR-8 ovarian and in the test on PC-3 prostate was more than 100 µM throughout. Besides, the TGI with SF-268 CNS, in the test with SF-295 CNS, with SK-MEL-2 melanoma, with SK-MEL-28 melanoma, in the test on SK-MEL-5 melanoma and with SN12C renal was more than 100 µM in each case. Besides, the TGI with T-47D breast and with UACC-257 melanoma was more than 100 µM each time.
